# From patent US20260015337A1 (Trawsfynydd Therapeutics, Inc., priority 2022, published 2026)
# Biological target: 3CL Protease (Severe acute respiratory syndrome coronavirus 2, UniProt P0DTD1)
# Assay: 3CL Protease enzymatic activity assay (BPS Bioscience Assay Kit #78043-1, fluorescence)
# Type: biochemical, SARS-CoV-2
# Conditions: Table A; 30 min preincubation, 40 μM substrate, 4 hours at room temperature; read-out: IC50, nM (3CL Protease enzymatic activity)
# Method: For determination of 3CL Protease enzymatic activity was used Assay Kit of BPS Bioscience, San Diego, CA (Catalog #78043-1).
# All samples and controls should be tested in duplicate. • 1) Just before use, dilute 0.5 M DTT 500 times into the 3CL Protease Assay Buffer to obtain a DTT concentration of 1 mM. For example, add 10 μl of 0.5 M DTT to 5 ml of assay buffer. Prepare enough DTT-containing buffer as required for the assay. Store the remaining assay buffer at −20° C. • 2) Thaw the 3CL Protease on ice. Briefly spin the tube containing the enzyme to recover the full content of the tube. Note: 3CL Protease enzyme is sensitive to freeze/thaw cycles. […] Note: The exact concentration and volume of enzyme is lot-specific and will be indicated on the tube. Calculate required dilution from the information in the tube. It may be desirable to dilute the enzyme serially to avoid using large amounts of protease assay buffer for the dilution. • 4) Add 30 μl of diluted 3CL Protease to the wells designated as “Positive Control,” “Inhibitor Control,” and “Test Inhibitor.” Add 30 μl of Assay Buffer (containing 1 mM DTT) to the “Blank” wells. • 5) Dilute the 50 μg GC376 in 200 μl of Assay Buffer to obtain a 500 μM solution. Add 10 μl of GC376 (500 μM) to the wells labeled “Inhibitor Control”. Aliquot and store the remaining solution at −80° C. • 6) Prepare the Test Inhibitor. The final concentration of DMSO in the assay should not exceed 1%. If the Test Inhibitor is dissolved in DMSO, make a 100-fold higher concentration of the compound than the highest desired concentration. Then make a 20-fold dilution in 1× Assay Buffer (containing DTT). At this step the compound concentration is 5-fold higher than the final concentration. If the test inhibitor is dissolved in water, make a 5-fold higher concentration of the test compound than the final desired concentration in the Assay buffer (containing DTT). Add 10 μl of Test Inhibitor to each well designated “Test Inhibitor”. • 7) Diluent Solution (no inhibitor): add 10 μl of assay buffer (if the test compound is water soluble and was diluted in assay buffer) or 10 μl of 5% DMSO diluted in assay buffer (if DMSO was used to dissolve the test inhibitor) to “Blank” and “Positive Control” wells.
# • 8) Preincubate for 30 min at room temperature with slow shaking. • 9) Dilute the 25 μl of 3CL Protease substrate (10 mM) in 1.25 ml of the Assay Buffer containing DTT, to make a […] solution. The final concentration of the 3CL Protease substrate in a 50 μl reaction is 40 μM. • 10) Start the reaction by adding 10 μl of the substrate solution to all the wells. Seal the plate with the plate sealer and incubate for 4 hours at room temperature with slow shaking. • 11) Measure the fluorescence intensity in a microtiter plate-reader fluorometer (Tecan Spark Cyto) capable of excitation at a wavelength 360 nm and detection of emission at a wavelength 460 nm. The fluorescence intensity can also be measured kinetically. The “Blank” value is subtracted from all other values. • The % inhibition was then used to calculate the IC50 values.
row,Compound,IC50
1,"CC1(C)CCc2[nH]c(=O)c(CC(C#N)NC(=O)[C@@H]3C4[C@H](CN3C(=O)[C@@H](NS(C)(=O)=O)C(C)(C)C)C4(C)C)cc2C1 (stereo in doubt) [Compound 128, (1R,2S,5S)—N-(1-Cyano-2-(6,6-dimethyl-2-oxo-1,2,5,6,7,8-hexahydroquinolin-3-yl)ethyl)-3-((S)-3,3-dimethyl-2-(methylsulfonamido)butanoyl)-6,6-dimethyl-3-azabicyclo[3.1.0]hexane-2-carboxamide]",500 to 1000 nM
2,"Cc1cc2cc(CC(C#N)NC(=O)[C@@H]3C4[C@H](CN3C(=O)[C@@H](NC(=O)C(F)(F)F)C(C)(C)C)C4(C)C)c(=O)[nH]c2cc1C (stereo in doubt) [Compound 145, (1R,2S,5S)—N-(1-cyano-2-(6,7-dimethyl-2-oxo-1,2-dihydroquinolin-3-yl)ethyl)-3-((S)-3,3-dimethyl-2-(2,2,2-trifluoroacetamido)butanoyl)-6,6-dimethyl-3-azabicyclo[3.1.0]hexane-2-carboxamide]",50 to 100 nM
3,"Cc1ccc2cc(CC(C#N)NC(=O)[C@@H]3C4[C@H](CN3C(=O)[C@@H](NC(=O)C(F)(F)F)C(C)(C)C)C4(C)C)c(=O)[nH]c2c1 (stereo in doubt) [Compound 146, (1R,2S,5S)—N-(1-Cyano-2-(7-methyl-2-oxo-1,2-dihydroquinolin-3-yl)ethyl)-3-((S)-3,3-dimethyl-2-(2,2,2-trifluoroacetamido)butanoyl)-6,6-dimethyl-3-azabicyclo[3.1.0]hexane-2-carboxamide]",50 to 100 nM
4,"Cc1ccc2[nH]c(=O)c(C[C@@H](C#N)NC(=O)[C@@H]3C4[C@H](CN3C(=O)[C@@H](NS(C)(=O)=O)C(C)(C)C)C4(C)C)cc2c1 (stereo in doubt) [Compound 147, (1R,2S,5S)—N-[(1S)-1-cyano-2-(6-methyl-2-oxo-1H-quinolin-3-yl)ethyl]-3-[(2S)-2-(methanesulfonamido)-3,3-dimethyl-butanoyl]-6,6-dimethyl-3-azabicyclo[3.1.0]hexane-2-carboxamide]",< 50 nM
5,"Cc1ccc2[nH]c(=O)c(C[C@H](C#N)NC(=O)[C@@H]3C4[C@H](CN3C(=O)[C@@H](NS(C)(=O)=O)C(C)(C)C)C4(C)C)cc2c1 (stereo in doubt) [Compound 148, (1R,2S,5S)—N-[(1R)-1-cyano-2-(6-methyl-2-oxo-1H-quinolin-3-yl)ethyl]-3-[(2S)-2-(methanesulfonamido)-3,3-dimethyl-butanoyl]-6,6-dimethyl-3-azabicyclo[3.1.0]hexane-2-carboxamide]",≥ 1000 nM
6,"Cc1ccc2[nH]c(=O)c(CC(C#N)NC(=O)[C@@H]3C4[C@H](CN3C(=O)[C@@H](Nc3nc(C)cs3)C(C)(C)C)C4(C)C)cc2c1 (stereo in doubt) [Compound 151, (1R,2S,5S)—N-(1-Cyano-2-(6-methyl-2-oxo-1,2-dihydroquinolin-3-yl)ethyl)-3-((S)-3,3-dimethyl-2-((4-methylthiazol-2-yl)amino)butanoyl)-6,6-dimethyl-3-azabicyclo[3.1.0]hexane-2-carboxamide]",500 to 1000 nM
7,"Cc1ccc2[nH]c(=O)c(CC(C#N)NC(=O)[C@@H]3C4[C@H](CN3C(=O)[C@@H](Nc3ncc(C)s3)C(C)(C)C)C4(C)C)cc2c1 (stereo in doubt) [Compound 152, (1R,2S,5S)—N-(1-Cyano-2-(6-methyl-2-oxo-1,2-dihydroquinolin-3-yl)ethyl)-3-((S)-3,3-dimethyl-2-((5-methylthiazol-2-yl)amino)butanoyl)-6,6-dimethyl-3-azabicyclo[3.1.0]hexane-2-carboxamide]",100 to 250 nM
8,"Cc1ccc2[nH]c(=O)c(CC(C#N)NC(=O)[C@@H]3C4[C@H](CN3C(=O)[C@@H](Nc3nccc(C(F)(F)F)n3)C(C)(C)C)C4(C)C)cc2c1 (stereo in doubt) [Compound 156, (1R,2S,5S)—N-(1-Cyano-2-(6-methyl-2-oxo-1,2-dihydroquinolin-3-yl)ethyl)-3-((S)-3,3-dimethyl-2-((4-(trifluoromethyl)pyrimidin-2-yl)amino)butanoyl)-6,6-dimethyl-3-azabicyclo[3.1.0]hexane-2-carboxamide]",≥ 1000 nM
9,"Cc1ccc2[nH]c(=O)c(C[C@@H](C#N)NC(=O)[C@@H]3C4[C@H](CN3C(=O)[C@@H](Nc3nc(C)cs3)C(C)(C)C)C4(C)C)cc2c1 (stereo in doubt) [Compound 157, (1R,2S,5S)—N—((S)-1-Cyano-2-(6-methyl-2-oxo-1,2-dihydroquinolin-3-yl)ethyl)-3-((S)-3,3-dimethyl-2-((4-methylthiazol-2-yl)amino)butanoyl)-6,6-dimethyl-3-azabicyclo[3.1.0]hexane-2-carboxamide]",250 to 500 nM
10,"Cc1ccc2[nH]c(=O)c(C[C@@H](C#N)NC(=O)[C@@H]3C4[C@H](CN3C(=O)[C@@H](Nc3ncc(C)s3)C(C)(C)C)C4(C)C)cc2c1 (stereo in doubt) [Compound 158, (1R,2S,5S)—N—((S)-1-Cyano-2-(6-methyl-2-oxo-1,2-dihydroquinolin-3-yl)ethyl)-3-((S)-3,3-dimethyl-2-((5-methylthiazol-2-yl)amino)butanoyl)-6,6-dimethyl-3-azabicyclo[3.1.0]hexane-2-carboxamide]",50 to 100 nM
11,"Cc1ccc2[nH]c(=O)c(C[C@@H](C#N)NC(=O)[C@@H]3C4[C@H](CN3C(=O)[C@@H](Nc3ccnc(C)n3)C(C)(C)C)C4(C)C)cc2c1 (stereo in doubt) [Compound 159, (1R,2S,5S)—N—((S)-1-Cyano-2-(6-methyl-2-oxo-1,2-dihydroquinolin-3-yl)ethyl)-3-((S)-3,3-dimethyl-2-((2-methylpyrimidin-4-yl)amino)butanoyl)-6,6-dimethyl-3-azabicyclo[3.1.0]hexane-2-carboxamide]",≥ 1000 nM
12,"Cc1ccc2[nH]c(=O)c(C[C@@H](C#N)NC(=O)[C@@H]3C4[C@H](CN3C(=O)[C@@H](Nc3nccc(C)n3)C(C)(C)C)C4(C)C)cc2c1 (stereo in doubt) [Compound 160, (1R,2S,5S)—N—((S)-1-Cyano-2-(6-methyl-2-oxo-1,2-dihydroquinolin-3-yl)ethyl)-3-((S)-3,3-dimethyl-2-((4-methylpyrimidin-2-yl)amino)butanoyl)-6,6-dimethyl-3-azabicyclo[3.1.0]hexane-2-carboxamide]",≥ 1000 nM
13,"Cc1ccc2[nH]c(=O)c(C[C@@H](C#N)NC(=O)[C@@H]3C4[C@H](CN3C(=O)[C@@H](Nc3ccnc(C(F)(F)F)n3)C(C)(C)C)C4(C)C)cc2c1 (stereo in doubt) [Compound 161, (1R,2S,5S)—N—((S)-1-Cyano-2-(6-methyl-2-oxo-1,2-dihydroquinolin-3-yl)ethyl)-3-((S)-3,3-dimethyl-2-((2-(trifluoromethyl)pyrimidin-4-yl)amino)butanoyl)-6,6-dimethyl-3-azabicyclo[3.1.0]hexane-2-carboxamide]",≥ 1000 nM
14,"Cc1ccc2[nH]c(=O)c(CC(C#N)NC(=O)[C@@H]3C4[C@H](CN3C(=O)[C@@H](NC(=O)OC(C)(C)C)C(C)(C)C)C4(C)C)cc2c1 (stereo in doubt) [Compound 171, tert-Butyl ((2S)-1-((1R,2S,5S)-2-((1-cyano-2-(6-methyl-2-oxo-1,2-dihydroquinolin-3-yl)ethyl)carbamoyl)-6,6-dimethyl-3-azabicyclo[3.1.0]hexan-3-yl)-3,3-dimethyl-1-oxobutan-2-yl)carbamate]",250 to 500 nM
15,"COC(=O)N[C@@H](C(=O)N1CC2C(C1C(=O)N[C@@H](C#N)Cc1cc3cc(C)ccc3[nH]c1=O)C2(C)C)C(C)(C)C (stereo in doubt) [Compound 200, Methyl N-[(1R)-1-[(1S)-2-[[(1R)-1-cyano-2-(6-methyl-2-oxo-1H-quinolin-3-yl)ethyl]carbamoyl]-6,6-dimethyl-3-azabicyclo[3.1.0]hexane-3-carbonyl]-2,2-dimethyl-propyl]carbamate]",< 50 nM
16,"CCOC(=O)N[C@@H](C(=O)N1CC2C(C1C(=O)N[C@@H](C#N)Cc1cc3cc(C)ccc3[nH]c1=O)C2(C)C)C(C)(C)C (stereo in doubt) [Compound 201, Ethyl N-[(1R)-1-[(1S)-2-[[(1R)-1-cyano-2-(6-methyl-2-oxo-1H-quinolin-3-yl)ethyl]carbamoyl]-6,6-dimethyl-3-azabicyclo[3.1.0]hexane-3-carbonyl]-2,2-dimethyl-propyl]carbamate]",50 to 100 nM
